Results reported in patent US8569281B2, “Compounds and their administration for treating a neurodegenerative disease as well as a method for identifying a compound capable of inhibiting a kinase, such as LRRK” (Medical Research Council Technology, priority 2010, dated 2013).
Where two headings read alike, the source gives them in different places.

Molecular target: LRRK2 (Homo sapiens (Human), UniProt Q5S007)
Experiment: In Vitro LRRK2 Assay (LabChip 3000, fluorescently-labeled peptide substrate)
Type: biochemical
Details: read-out: Ki (μM), affinity values for LRRK2
[1] = ATP 130 μM, substrate 1 μM, 2 hours, ambient temperature, LRRK2 variant not given

Sequence of LRRK2 (Q5S007 whole entry G2019S): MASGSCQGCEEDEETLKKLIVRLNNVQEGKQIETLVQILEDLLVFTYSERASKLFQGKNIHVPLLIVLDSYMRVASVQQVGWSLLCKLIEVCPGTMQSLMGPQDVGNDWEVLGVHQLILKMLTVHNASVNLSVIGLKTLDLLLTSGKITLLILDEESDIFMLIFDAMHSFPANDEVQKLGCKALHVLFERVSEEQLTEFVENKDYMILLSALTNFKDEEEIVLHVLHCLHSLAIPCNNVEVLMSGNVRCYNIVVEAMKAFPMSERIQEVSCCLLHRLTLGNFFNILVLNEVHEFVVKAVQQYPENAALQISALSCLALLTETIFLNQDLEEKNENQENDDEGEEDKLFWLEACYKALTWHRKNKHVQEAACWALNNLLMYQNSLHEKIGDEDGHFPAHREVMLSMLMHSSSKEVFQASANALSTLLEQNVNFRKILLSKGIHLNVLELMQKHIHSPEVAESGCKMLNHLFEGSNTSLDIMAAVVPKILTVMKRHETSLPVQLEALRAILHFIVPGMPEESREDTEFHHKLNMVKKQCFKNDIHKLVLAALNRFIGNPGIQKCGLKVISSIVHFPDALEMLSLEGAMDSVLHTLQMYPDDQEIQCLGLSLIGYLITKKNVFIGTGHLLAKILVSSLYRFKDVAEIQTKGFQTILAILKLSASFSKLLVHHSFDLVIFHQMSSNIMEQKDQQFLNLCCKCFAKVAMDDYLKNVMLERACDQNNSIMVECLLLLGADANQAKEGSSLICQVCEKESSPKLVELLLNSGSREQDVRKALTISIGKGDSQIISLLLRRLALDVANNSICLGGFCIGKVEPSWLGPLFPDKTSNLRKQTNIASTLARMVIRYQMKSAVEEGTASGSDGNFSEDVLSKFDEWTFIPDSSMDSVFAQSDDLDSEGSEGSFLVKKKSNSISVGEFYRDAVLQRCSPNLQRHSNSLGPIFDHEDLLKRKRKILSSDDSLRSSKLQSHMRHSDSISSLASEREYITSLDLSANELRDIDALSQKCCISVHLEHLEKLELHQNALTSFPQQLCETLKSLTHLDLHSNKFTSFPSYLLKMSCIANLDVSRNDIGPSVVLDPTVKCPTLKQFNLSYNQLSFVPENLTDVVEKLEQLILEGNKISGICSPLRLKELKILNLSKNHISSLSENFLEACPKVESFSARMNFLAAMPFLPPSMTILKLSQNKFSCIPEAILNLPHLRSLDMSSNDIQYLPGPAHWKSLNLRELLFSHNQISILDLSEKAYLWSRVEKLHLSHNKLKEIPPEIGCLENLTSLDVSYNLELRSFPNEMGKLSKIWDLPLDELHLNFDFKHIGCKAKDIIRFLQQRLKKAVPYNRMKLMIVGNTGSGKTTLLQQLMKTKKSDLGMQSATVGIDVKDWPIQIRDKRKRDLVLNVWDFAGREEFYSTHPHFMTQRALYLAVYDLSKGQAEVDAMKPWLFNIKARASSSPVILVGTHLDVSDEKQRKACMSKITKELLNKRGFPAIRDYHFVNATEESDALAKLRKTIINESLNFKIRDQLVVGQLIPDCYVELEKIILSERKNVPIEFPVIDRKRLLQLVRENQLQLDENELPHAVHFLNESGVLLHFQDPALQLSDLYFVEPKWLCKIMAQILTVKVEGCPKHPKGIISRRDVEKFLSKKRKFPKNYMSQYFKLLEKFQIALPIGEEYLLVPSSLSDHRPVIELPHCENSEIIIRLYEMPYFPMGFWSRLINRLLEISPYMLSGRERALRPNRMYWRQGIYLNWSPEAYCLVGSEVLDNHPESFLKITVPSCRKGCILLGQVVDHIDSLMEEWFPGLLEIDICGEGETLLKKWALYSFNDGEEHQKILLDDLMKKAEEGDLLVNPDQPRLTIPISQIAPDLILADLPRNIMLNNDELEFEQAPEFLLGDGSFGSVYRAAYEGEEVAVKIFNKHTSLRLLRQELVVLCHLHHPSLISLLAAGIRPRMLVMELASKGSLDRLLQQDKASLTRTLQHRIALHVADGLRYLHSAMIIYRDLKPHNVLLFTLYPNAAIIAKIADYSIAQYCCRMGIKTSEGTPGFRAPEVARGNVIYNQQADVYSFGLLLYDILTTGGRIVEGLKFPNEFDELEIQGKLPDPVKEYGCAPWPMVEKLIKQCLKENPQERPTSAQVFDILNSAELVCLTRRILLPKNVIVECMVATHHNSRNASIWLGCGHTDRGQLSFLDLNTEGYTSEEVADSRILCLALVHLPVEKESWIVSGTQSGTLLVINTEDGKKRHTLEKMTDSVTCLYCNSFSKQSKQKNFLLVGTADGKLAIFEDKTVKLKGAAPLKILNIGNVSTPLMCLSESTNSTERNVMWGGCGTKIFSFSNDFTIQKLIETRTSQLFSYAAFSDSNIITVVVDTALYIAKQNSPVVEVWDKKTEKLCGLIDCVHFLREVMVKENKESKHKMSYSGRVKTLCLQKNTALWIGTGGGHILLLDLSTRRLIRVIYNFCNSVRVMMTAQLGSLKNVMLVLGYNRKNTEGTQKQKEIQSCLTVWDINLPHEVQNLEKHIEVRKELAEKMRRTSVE

Compound	Ki [1]	Ki
CC(C)n1cc(-c2n[nH]c3ccnc(OC4CCOC4)c23)cn1 (stereo not drawn) [Example 224, 3-(1-Isopropyl-1H-pyrazol-4-yl)-4-(tetrahydro-furan-3-yloxy)-1H-pyrazolo[4,3-c]pyridine]	0.007 µM	–
3-(1-(Oxetan-3-yl)-1H-benzo[d]imidazol-6-yl)-4-(tetrahydro-2H-pyran-4-yloxy)-1H-pyrazolo[4,3-c]pyridine [Example 124]	–	0.019 µM
CC(C)n1cc(-c2n[nH]c3ccnc(OCCN4CCOC4=O)c23)cn1 [Example 182, 3-(2-(3-(1-isopropyl-1H-pyrazol-4-yl)-1H-pyrazolo[4,3-c]pyridin-4-yloxy)ethyl)oxazolidin-2-one]	0.323 µM	–
COc1nccc2[nH]nc(-c3ccnc(N4C[C@@H](C)O[C@@H](C)C4)c3)c12 [Example 238, (2S,6R)-4-(4-(4-methoxy-1H-pyrazolo[4,3-c]pyridin-3-yl)pyridin-2-yl)-2,6-dimethylmorpholine]	0.025 µM	–
c1cc2[nH]nc(-c3ccc4c(c3)ncn4C3CCOC3)c2c(OC2CCOCC2)n1 (stereo not drawn) [Example 129, 4-(tetrahydro-2H-pyran-4-yloxy)-3-(1-(tetrahydrofuran-3-yl)-1H-benzo[d]imidazol-5-yl)-1H-pyrazolo[4,3-c]pyridine]	0.01 µM	–
c1cc2[nH]nc(-c3cnn([C@H]4CCOC4)c3)c2c(OC2CCOCC2)n1 [Example 147, (S)-4-(tetrahydro-2H-pyran-4-yloxy)-3-(1-(tetrahydrofuran-3-yl)-1H-pyrazol-4-yl)-1H-pyrazolo[4,3-c]pyridine]	0.003 µM	–
O=C1OCCN1CCOc1nccc2[nH]nc(-c3ccnc(N4CCOCC4)c3)c12 [Example 179, 3-(2-(3-(2-morpholinopyridin-4-yl)-1H-pyrazolo[4,3-c]pyridin-4-yloxy)ethyl)oxazolidin-2-one]	0.354 µM	–
COc1nccc2[nH]nc(-c3ccnc(N4CCCC4)c3)c12 [Example 119, 4-Methoxy-3-(2-(pyrrolidin-1-yl)pyridin-4-yl)-1H-pyrazolo[4,3-c]pyridine]	0.026 µM	–
CS(=O)(=O)c1cccc(-c2[nH]nc3ccnc(OC4CCOCC4)c23)c1 [Example 165, 3-(3-(Methylsulfonyl)phenyl)-4-(tetrahydro-2H-pyran-4-yloxy)-1H-pyrazolo[4,3-c]pyridine]	0.029 µM	–
c1cc2[nH]nc(-c3cnn([C@@H]4CCOC4)c3)c2c(OC2CCOCC2)n1 [Example 146, (R)-4-(Tetrahydro-2H-pyran-4-yloxy)-3-(1-(tetrahydrofuran-3-yl)-1H-pyrazol-4-yl)-1H-pyrazolo[4,3-c]pyridine]	0.005 µM	–
Cc1[nH]nc2ccnc(OC3CCOC3)c12 (stereo not drawn) [Example 31]	0.158 µM	–
O=C(NC1CC1)c1cccc(-c2[nH]nc3ccnc(OC4CCOCC4)c23)c1 [Example 155, N-Cyclopropyl-3-(4-(tetrahydro-2H-pyran-4-yloxy)-1H-pyrazolo[4,3-c]pyridin-3-yl)benzamide]	0.027 µM	–
Cc1n[nH]c2ccnc(NC3CCOCC3)c12 [Example 188, 3-methyl-N-(tetrahydro-2H-pyran-4-yl)-1H-pyrazolo[4,3-c]pyridin-4-amine]	0.13 µM	–

Further compounds by falling Ki [1], results first:

Ki [1]	Compound	Ki
0.384 µM	CC(C)Oc1nccc2[nH]nc(-c3ccnc(C(=O)N4C[C@@H]5C[C@H]4CO5)c3)c12 [Example 220, [4-(4-Isopropoxy-1H-pyrazolo[4,3-c]pyridin-3-yl)-pyridin-2-yl]-(1S,4S)-2-oxa-5-aza-bicyclo[2.2.1]hept-5-yl-methanone]	–
0.165 µM	c1cc(Nc2[nH]nc3ccnc(OC4CCOCC4)c23)ccn1 [Example 163, N-(Pyridin-4-yl)-4-(tetrahydro-2H-pyran-4-yloxy)-1H-pyrazolo[4,3-c]pyridin-3-amine]	–
0.104 µM	CN(C)C(=O)c1ccc(-c2[nH]nc3ccnc(OC4CCOCC4)c23)cc1F [Example 135, 2-Fluoro-N,N-dimethyl-4-(4-(tetrahydro-2H-pyran-4-yloxy)-1H-pyrazolo[4,3-c]pyridin-3-yl)benzamide]	–
0.05 µM	CN(C)c1cccc(-c2[nH]nc3ccnc(OC4CCOCC4)c23)c1 [Example 153, N,N-Dimethyl-3-(4-(tetrahydro-2H-pyran-4-yloxy)-1H-pyrazolo[4,3-c]pyridin-3-yl)aniline]	–
0.035 µM	c1cc2n[nH]c(C3CC3)c2c(OC2CCOCC2)n1 [Example 28, 3-Cyclopropyl-4-(tetrahydro-2H-pyran-4-yloxy)-1H-pyrazolo[4,3-c]pyridine]	–
0.025 µM	N#Cc1ccc(-c2cc(-c3n[nH]c4ccnc(OC5CCOCC5)c34)ccn2)cc1 [Example 202, 4-(4-(4-(tetrahydro-2H-pyran-4-yloxy)-1H-pyrazolo[4,3-c]pyridin-3-yl)pyridin-2-yl) benzonitrile]	–
0.019 µM	CC(C)Oc1nccc2[nH]nc(-c3cc(C(=O)N4CCOCC4)n(C(C)C)c3)c12 [Example 57, (4-(4-Isopropoxy-1H-pyrazolo[4,3-c]pyridin-3-yl)-1-isopropyl-1H-pyrrol-2-yl)(morpholino)methanone]	–
0.017 µM	N#CCc1cccc(-c2[nH]nc3ccnc(OC4CCOCC4)c23)c1 [Example 151, 2-(3-(4-(Tetrahydro-2H-pyran-4-yloxy)-1H-pyrazolo[4,3-c]pyridin-3-yl)phenyl)acetonitrile]	–
0.016 µM	CC(Oc1nccc2[nH]nc(-c3ccnc(N4CCOCC4)c3)c12)C(F)(F)F (stereo not drawn) [Example 177, 4-(4-(4-(1,1,1-trifluoropropan-2-yloxy)-1H-pyrazolo[4,3-c]pyridin-3-yl)pyridin-2-yl)morpholine]	–
0.012 µM	c1ccc2ncc(-c3n[nH]c4ccnc(OC5CCOCC5)c34)cc2c1 [Example 150, 3-(4-(Tetrahydro-2H-pyran-4-yloxy)-1H-pyrazolo[4,3-c]pyridin-3-yl)quinoline]	–
0.005 µM	Cc1cc(-c2n[nH]c3ccnc(OC4CCOCC4)c23)cc(C)n1 [Example 100, 3-(2,6-Dimethylpyridin-4-yl)-4-(tetrahydro-2H-pyran-4-yloxy)-1H-pyrazolo[4,3-c]pyridine]	–
